The structures appear in SMILES notation.

In general, Ki refers to a measure of affinity in units of concentration, obtained from inhibition or displacement.

In the experiment the target is GTPase HRas (Homo sapiens) (UniProt P01112). Put plainly: blockade of Bodipy-GTP loading onto wild-type Ras – biochemical, oxadiazole analogs, multiplex bead flow cytometry, SAR follow-up (AID 2053). Conditions: GST-Ras beads, Bodipy-FL-GTP binding, Ki calculated from EC50.
GTPase HRas (Homo sapiens), sequence (P01112 whole entry, looked up): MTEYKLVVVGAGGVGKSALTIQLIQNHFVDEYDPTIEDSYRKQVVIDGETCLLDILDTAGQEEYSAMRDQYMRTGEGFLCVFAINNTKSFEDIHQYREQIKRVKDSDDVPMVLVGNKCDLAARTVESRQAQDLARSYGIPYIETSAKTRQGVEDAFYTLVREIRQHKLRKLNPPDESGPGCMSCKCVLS
In the case of `Cc1ccc(C)c(N2CCN(C(=O)CCc3nc(-c4ccccc4Br)no3)CC2)c1`, the Ki is 10 nM. For `COc1ccc(-c2noc(CCC(=O)N3CCN(c4ccccc4F)CC3)n2)cc1`, the Ki is 10 nM. In the case of `Cc1ccc(C)c(N2CCN(C(=O)CCc3nc(-c4ccc(Br)cc4)no3)CC2)c1`, the inhibition constant (Ki) was 290 nM. With `COc1ccc(-c2noc(CCC(=O)N3CCN(c4ccccc4Cl)CC3)n2)cc1`, the Ki is 290 nM. As to `COc1ccc(-c2noc(CCC(=O)N3CCN(c4cc(C)ccc4C)CC3)n2)cc1`, the Ki was 270 nM.

On to `COc1cccc(-c2noc(CCC(=O)N3CCN(c4cc(C)ccc4C)CC3)n2)c1`, for which the inhibition constant (Ki) was 230 nM.

As to `Cc1ccc(C)c(N2CCN(C(=O)CCc3nc(-c4ccccc4)no3)CC2)c1`, the Ki was 140 nM.

The values are drawn from PubChem BioAssay AID2053 (NMMLSC, 2009).
